Source: PMC7203957 (ACS Omega, 2020)
Where “and” joins values, the source holds several entries; their conditions need not be identical. Identical values can stand only once.

Experiments:
GyrB (1–220) = GyrB (1–220) (Escherichia coli, UniProt P0AES6); test: Isothermal titration calorimetry; format: binding, E. coli; conditions: for exothermic / thermodynamic signal in ITC: fragment screening, result in words
[1] = Solubility test for ITC measurement; format: physicochemical; conditions: DMSO (40–200 mM) and assay (ITC) buffer
HepG2 cytotoxicity = format: cell-based; conditions: human, HepG2 (ATCC HB-8065) cells
E. coli ATCC 25922 = test: Minimum inhibitory concentration; format: cell-based; conditions: without efflux pump inhibitor
S. aureus ATCC 29213 = test: Minimum inhibitory concentration; format: cell-based

With `CCNc1cccc2ccc(=O)[nH]c12` [Compound 2q, 8-(ethylamino) quinolin-2(1H)-one] the “exothermic / thermodynamic signal in ITC” value (GyrB (1–220)) was “no exothermic effects”.
For `CNc1cccc2cc(C(=O)Nc3cccc(C(=O)O)c3)c(=O)[nH]c12` [Compound 13a, 3-{[8-(Methylamino)-2-oxo-1,2-dihydroquinoline-3-carbonyl]amino}benzoic Acid], the “ITC ΔH” value (GyrB (1–220); Table 3) was -12.9 kcal/mol.
With `CNc1cccc2cc(C(=O)Nc3ccccc3)c(=O)[nH]c12` [Compound 13, 8-(Methylamino)-2-oxo-N-phenyl-1,2-dihydroquinoline-3-carboxamide] the “Solubility for ITC measurement” value [1] was “low solubility”.
With `CNc1cccc2ccc(=O)[nH]c12` [Compound 2d, 8-(Methylamino)quinolin-2(1H)-one] the “ITC ΔH” value (GyrB (1–220); Table 2 fragments) was −6.14 kcal/mol and -6.14^b kcal/mol.
With `CNc1cccc2cc(C(=O)Nc3ccc(C(=O)O)cc3)c(=O)[nH]c12` [Compound 13e, 4-{[8-(Methylamino)-2-oxo-1,2-dihydroquinoline-3-carbonyl]amino}benzoic Acid] the cytotoxicity at 48 h, 50 µM (HepG2 cytotoxicity) was 8.4% and the “ITC ΔH” value (GyrB (1–220); Table 3) was -13.7 kcal/mol.
In the case of `CNc1cccc2cc(C(=O)NCCc3cccc(C(=O)O)c3)c(=O)[nH]c12` [Compound 13c, 3-(2-{[8-(Methylamino)-2-oxo-1,2-dihydroquinoline-3-carbonyl]amino}ethyl)benzoic Acid], the “ITC ΔH” value (GyrB (1–220); Table 3) is reported as -13.2 kcal/mol, the “MIC E. coli ATCC 25922” value (E. coli ATCC 25922) is reported as “no antibacterial activity” and the “MIC S. aureus ATCC 29213” value (S. aureus ATCC 29213) is reported as “no antibacterial activity”.
With `Nc1cccc2ccc(=O)[nH]c12` [Compound 2u, 8-aminoquinolin-2(1H)-one] the “exothermic / thermodynamic signal in ITC” value (GyrB (1–220)) was “no exothermic effects”.
In the case of `CNc1cccc2cc(C(=O)NCc3ccc(C(=O)O)cc3)c(=O)[nH]c12` [Compound 13f, 4-({[8-(Methylamino)-2-oxo-1,2-dihydroquinoline-3-carbonyl]amino}methyl)benzoic Acid], the “MIC E. coli ATCC 25922” value (E. coli ATCC 25922) is reported as “no antibacterial activity” and the “MIC S. aureus ATCC 29213” value (S. aureus ATCC 29213) is reported as “no antibacterial activity”.
